Test results from patent publication US9586978B2, “Anti-viral compounds” (AbbVie Inc., priority 2009, dated 2017).

Legend:
HCV 1b-Con1 replicon = HCV 1b-Con1 replicon assay in the presence of 5% FBS (luciferase reporter); type: cell-based; conditions: Hepatitis C virus
[1] = system: HCV 1a replicon containing NS5A mutation L31V; experiment: HCV 1a L31V replicon assay; type: cell-based, Hepatitis C virus; conditions: compared with unsubstituted benzimidazole reference compound of Table 2
Description: Table 2 compares compounds containing unsubstituted benzimidazole to those containing halo-substituted benzimidazole. Anti-viral activities were assessed using wild-type replicons (e.g., 1b WT or 1a WT) as well as replicons containing specific NS5A mutations (e.g., 1b L28T, 1b Y93H, 1a L31V, 1a Y93C, 1a M28V, or 1a Q30E) in the absence of FBS.

Q: Which EC50 (HCV 1b-Con1 replicon) does the source give for `COC(=O)N[C@H](C(=O)N1CCC[C@H]1c1nc2cc(C3CC[C@H](c4ccc5[nH]c([C@@H]6CCCN6C(=O)[C@@H](NC(=O)OC)C6CCOCC6)nc5c4)N3c3cc(F)c(N4CCCCC4)c(F)c3)ccc2[nH]1)C1CCOCC1` (stereo in doubt) [Example 3.18, dimethyl({(2R,5R)-1-[3,5-difluoro-4-(piperidin-1-yl)phenyl]pyrrolidine-2,5-diyl}bis{1H-benzimidazole-5,2-diyl(2S)pyrrolidine-2,1-diyl[(1S)-2-oxo-1-(tetrahydro-2H-pyran-4-yl)ethane-2,1-diyl]})biscarbamate] here?
A: < 0.1 nM

Q: How did the EC50 (HCV 1b-Con1 replicon) turn out when `COC(=O)N[C@H](C(=O)N1C(c2nc3cc([C@H]4CC[C@H](c5ccc6[nH]c([C@@H]7C[C@@H]8CCC[C@@H]8N7C(=O)[C@@H](NC(=O)OC)C(C)C)nc6c5)N4c4ccc(C(C)(C)C)cc4)ccc3[nH]2)C[C@@H]2CCC[C@@H]21)C(C)C` (stereo partly drawn) [Example 4.19, methyl{(2S)-1-[(2S,3aS,6aS)-2-{5-[(2R,5R)-1-(4-tert-butylphenyl)-5-{2-[(3aS,6aS)-1-{(2S)-2-[(methoxycarbonyl)amino]-3-methylbutanoyl}octahydrocyclopenta[b]pyrrol-2-yl]-1H-benzimidazol-5-yl}pyrrolidin-2-yl]-1H-benzimidazol-2-yl}hexahydrocyclopenta[b]pyrrol-1(2H)-yl]-3-methyl-1-oxobutan-2-yl}carbamate] was run?
A: < 0.1 nM

Q: For `COC(=O)N[C@H](C(=O)N1CCCC1c1nc2c(F)cc(-c3ccc(-c4cc(F)c5nc([C@@H]6CCCN6C(=O)[C@@H](NC(=O)OC)C(C)C)[nH]c5c4)cc3)cc2[nH]1)C(C)C` (some centres unmarked), which “activity against HCV variants containing NS5A mutations (e.g., 1a L31V)” value [1] is on record?
A: better activity

Q: How did the EC50 (HCV 1b-Con1 replicon) turn out when `COC(=O)N[C@H](C(=O)N1CCCC1c1nc2cc([C@H]3CCC(c4cc5nc([C@@H]6CCCN6C(=O)[C@@H](NC(=O)OC)C(C)C)[nH]c5cc4F)N3c3cnc(N4CCC(c5ccccc5)CC4)nc3)c(F)cc2[nH]1)C(C)C` (stereo in doubt) [Example 3.46, methyl{(2S)-1-[(2S)-2-(6-fluoro-5-{(2R,5S)-5-{6-fluoro-2-[(2S)-1-{(2S)-2-[(methoxycarbonyl)amino]-3-methylbutanoyl}pyrrolidin-2-yl]-1H-benzimidazol-5-yl}-1-[2-(4-phenylpiperidin-1-yl)pyrimidin-5-yl]pyrrolidin-2-yl}-1H-benzimidazol-2-yl)pyrrolidin-1-yl]-3-methyl-1-oxobutan-2-yl}carbamate] was run?
A: < 0.1 nM

Q: With `COC(=O)N[C@H](C(=O)N1CCC[C@H]1c1nc2cc([C@H]3CC[C@H](c4ccc5[nH]c([C@@H]6CCCN6C(=O)[C@@H](NC(=O)OC)C(C)C)nc5c4)N3c3ccc(N4CCCCC4=O)cc3)ccc2[nH]1)C(C)C` [Example 1.2] as the molecule, how does the EC50 (HCV 1b-Con1 replicon) read?
A: > 10000 nM
